Data as given in patent US10206907B2, “Compounds useful for the treatment of degenerative and inflammatory diseases” (GALAPAGOS NV, priority 2008, dated 2019).

How the values were obtained:
MMP13 in SW1353 cells = experiment: OSM/IL-1β signaling assay (MMP13 levels in SW1353 cells); type: cell-based; details: Homo sapiens; SW1353 cells, OSM and IL-1β triggered, MMP13 levels 48 hours after triggering; read-out: MMP13 EC50;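 also: secreted MMP13 captured by antibody, activated with APMA and its activity read by fluorescence, inhibition scaled between vehicle-treated triggered wells (0%) and untriggered wells (100%)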
[1] = target: Recombinant human JAK2 catalytic domain (Homo sapiens (Human), UniProt O60674); experiment: JAK2 inhibition assay; type: biochemical; details: semi-quantitative score
How it was run: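 Radiometric kinase reactions ran for 90 min at 30 °C and were stopped with phosphoric acid, then washed and counted by scintillation. Percent inhibition was set relative to vehicle and to 10 μM staurosporine background. IC50 was derived from dose-dilution series.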

[2] = tested on: JAK-STAT signalling in HeLa cells; experiment: JAK-STAT signalling assay (OSM-triggered pSTAT1(2)-luciferase reporter in HeLa cells); type: cell-based; details: Homo sapiens; HeLa cells, OSM-triggered pSTAT1(2)-luciferase reporter; read-out: STAT signalling EC50
How it was run: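 HeLa cells transiently transfected with pSTAT1(2)-luciferase reporter plus LacZ internal control, incubated overnight at 37 °C, 10% CO2, then OSM-stimulated with compound. Luciferase read by Steadylite luminescence and normalised to β-galactosidase (ONPG); percent inhibition from controls, EC50 from dose-response.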

[3] = Microsomal stability, human liver microsomes; type: in vitro ADME; details: percentage of compound remaining after 60 minutes, 3 μM compound
How it was run: (§1)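 Compound was incubated with liver microsomes plus an NADP+/glucose-6-phosphate/G6PDH/MgCl2 regenerating system at 37°C for 1 h. Reactions were stopped 1:1 with MeOH or ACN and analysed by LCMS.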

[4] = target: Recombinant human JAK3 catalytic domain (Homo sapiens (Human), UniProt P52333); experiment: JAK3 inhibition assay; type: biochemical; details: semi-quantitative score
Protocol: Plates were washed 6 times with 300 μL per well of a 75 mM phosphoric acid solution and the bottom of the plates was sealed. 40 μL/well of Microscint-20 was added, the top of the plates was sealed and readout was performed using the Topcount (Perkin Elmer). Kinase activity was calculated by subtracting counts per minute (cpm) obtained in the presence of a positive control inhibitor (10 μM staurosporine) from cpm obtained in the presence of vehicle. The ability of a test compound to inhibit this activity was determined as: Percentage inhibition=((cpm determined for sample with test compound present−cpm determined for sample with positive control inhibitor) divided by (cpm determined in the presence of vehicle−cpm determined for sample with positive control inhibitor))*100%.
Dose dilution series were prepared for the compounds enabling the testing of dose-response effects in the JAK3 assay and the calculation of the IC50 for each compound.

[5] = Microsomal stability, rat liver microsomes; type: in vitro ADME; details: percentage of compound remaining after 60 minutes, 3 μM compound
How it was run: as §1

[6] = Caco2 permeability (bi-directional); type: in vitro ADME, human; details: human, pH 7.4; for Papp A→B at 1 h, 10 µM: Caco-2, apical to basolateral, read-out: Papp (A2B); for efflux ratio at 1 h, 10 µM: Caco-2, ratio of PappB>A/PappA>B
How it was run: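 Bidirectional transport across Caco-2 monolayers was run for 1 h at 37 °C with shaking, with 50 μM Lucifer Yellow in the donor to check monolayer integrity (acceptance ≤100 nm/s). Apical and basal compound levels were measured by LC-MS/MS, and efflux ratio was taken as PappB>A/PappA>B.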

[7] = target: Recombinant human JAK1 catalytic domain (Homo sapiens (Human), UniProt P23458); experiment: JAK1 inhibition assay; type: biochemical; details: semi-quantitative score
How it was run: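 Radiometric assay read by scintillation counting after phosphoric-acid washes. Percent inhibition calculated from cpm relative to vehicle and 10 μM staurosporine control. IC50 derived from compound dose-dilution series.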

Recombinant human JAK3 catalytic domain, sequence (P52333 781-1124): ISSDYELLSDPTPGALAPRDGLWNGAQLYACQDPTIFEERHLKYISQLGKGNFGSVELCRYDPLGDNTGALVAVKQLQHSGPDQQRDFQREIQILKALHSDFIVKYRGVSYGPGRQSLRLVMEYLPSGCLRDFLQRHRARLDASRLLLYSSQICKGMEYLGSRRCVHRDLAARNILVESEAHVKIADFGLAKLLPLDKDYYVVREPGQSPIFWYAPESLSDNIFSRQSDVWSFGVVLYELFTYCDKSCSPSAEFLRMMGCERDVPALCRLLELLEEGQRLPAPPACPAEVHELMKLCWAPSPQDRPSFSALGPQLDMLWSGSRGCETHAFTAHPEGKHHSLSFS
Recombinant human JAK2 catalytic domain, sequence (O60674 808-1132): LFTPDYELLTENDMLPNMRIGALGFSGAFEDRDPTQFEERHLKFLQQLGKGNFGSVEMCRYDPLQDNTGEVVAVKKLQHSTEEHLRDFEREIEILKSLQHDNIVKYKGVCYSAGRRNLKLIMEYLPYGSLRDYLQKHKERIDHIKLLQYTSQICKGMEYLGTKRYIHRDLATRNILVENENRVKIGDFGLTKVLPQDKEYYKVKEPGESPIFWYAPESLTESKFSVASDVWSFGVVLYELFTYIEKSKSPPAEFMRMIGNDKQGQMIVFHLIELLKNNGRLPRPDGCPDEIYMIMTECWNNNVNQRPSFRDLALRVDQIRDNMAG
Recombinant human JAK1 catalytic domain, sequence (P23458 850-1154): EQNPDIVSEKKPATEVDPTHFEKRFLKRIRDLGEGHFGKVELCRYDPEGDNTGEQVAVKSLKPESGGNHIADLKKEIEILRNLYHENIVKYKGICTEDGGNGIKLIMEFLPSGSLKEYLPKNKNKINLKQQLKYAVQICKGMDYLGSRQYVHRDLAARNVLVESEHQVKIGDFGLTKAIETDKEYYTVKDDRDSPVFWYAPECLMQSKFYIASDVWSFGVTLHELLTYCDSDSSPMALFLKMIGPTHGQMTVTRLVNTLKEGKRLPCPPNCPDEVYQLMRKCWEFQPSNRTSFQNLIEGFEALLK

Row | SMILES | EC50 (MMP13 in SW1353 cells) [nM] | IC50 [1] [nM] | EC50 [2] [nM] | Microsomal Stability Human (%) [3] | IC50 [4] [nM] | Microsomal Stability Rat (%) [5] | Papp A→B at 1 h, 10 µM [6] [×10⁻⁶ cm/s] | efflux ratio at 1 h, 10 µM [6] | IC50 [7] [nM]
1 | O=C(Nc1nc2cccc(-c3cnn(Cc4ccccc4)c3)n2n1)C1CC1 [Compound 107, N-(5-(1-benzyl-1H-pyrazol-4-yl)-[1,2,4]triazolo[1,5-a]pyridin-2-yl)cyclopropanecarboxamide] | > 1000 | < 100 | > 1000 | * (* 0-25) | > 1000 | * (* 0-25) | 24.1 | 1.05 | < 100
2 | O=C(Nc1nc2cccc(-c3ccc(CN4CCC(F)(F)CC4)cc3)n2n1)C1CC1 [Compound 234, Cyclopropanecarboxylic acid {5-[4-(4,4-difluoro-piperidin-1-ylmethyl)-phenyl]-[1,2,4]triazolo[1,5-a]pyridin-2-yl}-amide] | 1 to 500 | < 100 | 501 to 1000 | ** (** 26-50) | 101 to 500 | ** (** 26-50) | 36.5 | 0.9 | < 100
3 | O=C(Nc1nc2cccc(-c3ccc(CN4CCC(C(F)(F)F)CC4)cc3)n2n1)C1CC1 [Compound 240, Cyclopropanecarboxylic acid {5-[4-(4-trifluoromethyl-piperidin-1-ylmethyl)-phenyl]-[1,2,4]triazolo[1,5-a]pyridin-2-yl}-amide] | > 1000 | < 100 | 101 to 500 | ** (** 26-50) | 501 to 1000 | *** (*** 51-75) | 29.6 | 1.3 | < 100

The remaining lines, values ahead:

Row | EC50 (MMP13 in SW1353 cells) [nM] | IC50 [1] [nM] | EC50 [2] [nM] | Microsomal Stability Human (%) [3] | IC50 [4] [nM] | Microsomal Stability Rat (%) [5] | Papp A→B at 1 h, 10 µM [6] [×10⁻⁶ cm/s] | efflux ratio at 1 h, 10 µM [6] | IC50 [7] [nM] | SMILES
4 | > 1000 | < 100 | > 1000 | * (* 0-25) | > 1000 | * (* 0-25) | 11.8 | 3.23 | < 100 | O=C(NCCOc1ccccc1)c1ccc(-c2cccc3nc(NC(=O)C4CC4)nn23)c(F)c1 [Compound 100, 4-(2-(cyclopropanecarboxamido)-[1,2,4]triazolo[1,5-a]pyridin-5-yl)-3-fluoro-N-(2-phenoxyethyl)benzamide]
5 | > 1000 | 101 to 500 | > 1000 | * (* 0-25) | > 1000 | * (* 0-25) | 28 | 0.9 | < 100 | O=C(Nc1nc2cccc(-c3ccc(NCc4ccccc4)nc3)n2n1)C1CC1 [Compound 104, N-(5-(6-(benzylamino)pyridin-3-yl)-[1,2,4]triazolo[1,5-a]pyridin-2-yl)cyclopropanecarboxamide]
6 | 501 to 1000 | < 100 | 501 to 1000 | * (* 0-25) | > 1000 | * (* 0-25) | 27.7 | 1.4 | < 100 | O=C(CCOc1ccccc1)Nc1ccc(-c2cccc3nc(NC(=O)C4CC4)nn23)cc1 [Compound 108]
